This is an account of results in patent US10479795B2 (Incyte Corporation, priority 2016, dated 2019).

In assay [1] the target is PI3Kδ (p110δ/p85α) Recombinant Human Protein (Homo sapiens (Human), UniProt O00329). Kind of assay: PI3Kδ Scintillation Proximity Assay. In kind it is biochemical. The essentials: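 Radiometric read-out: 33P-labelled PIP3 product captured on WGA SPA beads and counted, with IC50 fitted from percent activity relative to DMSO control. Enzyme (3.4 nM) was incubated 120 min at room temperature with 20 μM PIP2 and 2 μM ATP at pH 6.7, 2% DMSO.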
A general note: SPA uses beads or plates that emit light when radiolabelled molecules are held near them.

Assay [2] deals with Phosphorylated Ribosomal Protein S6 (RPS6). In words: THP-1 RPS6 ELISA Assay. In kind it is cell-based, Human. The note with it: THP-1 cells, read-out: PI3Kγ_THP1_RPS6_ELISA IC50. A digest of the protocol:
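IC50 values come from a curve of percent inhibition against log compound concentration, using phospho-RPS6 ELISA (450 nm) on THP-1 lysates. Cells were serum-starved overnight, exposed to compound for 2 h at 37 °C, then challenged 15 min with 10 nM MCP-1.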
Background: An ELISA detects its analyte on a solid surface through an enzyme-linked reagent.

Assay [3] has as its target PI3Kγ (p110γ) Recombinant Human Protein (Homo sapiens (Human), UniProt P48736). In words: PI3K-γ Scintillation Proximity Assay. In kind it is biochemical. The conditions noted are these: read-out: PI3Kγ IC50. A digest of the protocol: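 Radiometric SPA readout: […] bound to WGA beads after overnight shaking, IC50 derived from % activity of DMSO control. Reaction used human p110γ, 2 μM ATP, 20 μM PIP2, pH 6.7 MOPS buffer with MgCl2, DTT, CHAPS, 2% DMSO, room temperature.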

Structures can show the parent of a compound that is named as a salt. Where two headings read alike, the source gives them in different places.

Chain of PI3Kγ (p110γ) Recombinant Human Protein (P48736 whole entry): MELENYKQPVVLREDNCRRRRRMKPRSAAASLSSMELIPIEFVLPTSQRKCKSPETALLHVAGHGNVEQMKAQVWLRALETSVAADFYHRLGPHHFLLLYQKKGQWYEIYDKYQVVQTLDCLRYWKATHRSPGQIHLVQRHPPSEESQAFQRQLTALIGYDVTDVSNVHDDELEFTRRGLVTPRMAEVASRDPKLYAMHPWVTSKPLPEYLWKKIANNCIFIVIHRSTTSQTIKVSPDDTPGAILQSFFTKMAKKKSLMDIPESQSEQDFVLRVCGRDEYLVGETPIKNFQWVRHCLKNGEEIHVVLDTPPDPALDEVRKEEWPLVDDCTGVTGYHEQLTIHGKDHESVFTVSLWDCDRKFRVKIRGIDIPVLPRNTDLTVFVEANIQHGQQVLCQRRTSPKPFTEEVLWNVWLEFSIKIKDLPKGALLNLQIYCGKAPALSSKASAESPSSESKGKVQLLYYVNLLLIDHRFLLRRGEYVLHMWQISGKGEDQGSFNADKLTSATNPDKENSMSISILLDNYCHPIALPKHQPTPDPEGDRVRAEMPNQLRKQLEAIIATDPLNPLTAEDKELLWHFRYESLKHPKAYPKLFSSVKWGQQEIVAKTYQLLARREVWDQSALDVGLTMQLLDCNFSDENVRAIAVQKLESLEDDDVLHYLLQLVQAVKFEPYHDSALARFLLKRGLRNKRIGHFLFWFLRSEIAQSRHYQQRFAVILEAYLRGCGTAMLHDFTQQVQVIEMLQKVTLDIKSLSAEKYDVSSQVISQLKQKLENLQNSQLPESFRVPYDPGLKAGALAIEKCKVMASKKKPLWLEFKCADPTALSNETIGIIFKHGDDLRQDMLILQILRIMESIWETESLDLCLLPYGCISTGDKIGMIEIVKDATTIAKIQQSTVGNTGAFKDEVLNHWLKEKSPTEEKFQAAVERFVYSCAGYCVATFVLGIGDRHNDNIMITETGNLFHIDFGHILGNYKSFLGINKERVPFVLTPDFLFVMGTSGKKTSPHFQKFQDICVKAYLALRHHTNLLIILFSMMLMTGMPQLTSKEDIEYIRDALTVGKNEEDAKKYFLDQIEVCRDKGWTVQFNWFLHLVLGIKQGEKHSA
Chain of PI3Kδ (p110δ/p85α) Recombinant Human Protein (O00329 whole entry): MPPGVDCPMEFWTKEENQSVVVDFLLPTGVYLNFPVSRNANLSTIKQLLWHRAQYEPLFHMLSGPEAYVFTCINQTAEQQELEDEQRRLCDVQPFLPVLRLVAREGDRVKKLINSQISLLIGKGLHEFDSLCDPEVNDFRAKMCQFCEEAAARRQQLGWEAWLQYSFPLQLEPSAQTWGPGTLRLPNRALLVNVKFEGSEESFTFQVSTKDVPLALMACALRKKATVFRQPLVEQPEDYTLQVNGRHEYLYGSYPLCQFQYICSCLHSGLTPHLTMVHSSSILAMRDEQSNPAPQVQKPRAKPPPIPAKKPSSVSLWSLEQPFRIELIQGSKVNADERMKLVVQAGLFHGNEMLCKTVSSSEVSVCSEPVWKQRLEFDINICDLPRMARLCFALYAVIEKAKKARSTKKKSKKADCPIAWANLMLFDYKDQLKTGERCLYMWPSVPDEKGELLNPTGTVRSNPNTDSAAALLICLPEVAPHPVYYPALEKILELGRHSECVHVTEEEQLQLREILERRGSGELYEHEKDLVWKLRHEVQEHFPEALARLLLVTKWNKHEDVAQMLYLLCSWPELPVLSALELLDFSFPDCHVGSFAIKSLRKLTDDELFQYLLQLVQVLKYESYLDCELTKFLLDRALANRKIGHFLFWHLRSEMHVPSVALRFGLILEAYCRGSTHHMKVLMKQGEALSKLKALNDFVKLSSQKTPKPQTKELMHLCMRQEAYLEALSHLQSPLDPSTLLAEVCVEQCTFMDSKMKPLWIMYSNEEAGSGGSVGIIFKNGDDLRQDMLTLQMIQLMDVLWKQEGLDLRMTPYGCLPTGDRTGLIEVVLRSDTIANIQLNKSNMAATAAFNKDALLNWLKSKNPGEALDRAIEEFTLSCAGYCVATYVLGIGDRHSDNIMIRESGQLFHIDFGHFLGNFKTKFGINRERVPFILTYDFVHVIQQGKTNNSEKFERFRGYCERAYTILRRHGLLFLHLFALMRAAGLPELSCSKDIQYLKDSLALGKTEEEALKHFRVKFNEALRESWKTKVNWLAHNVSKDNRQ
Chain of PI3Kδ (p110δ/p85α) Recombinant Human Protein (P27986 whole entry partner): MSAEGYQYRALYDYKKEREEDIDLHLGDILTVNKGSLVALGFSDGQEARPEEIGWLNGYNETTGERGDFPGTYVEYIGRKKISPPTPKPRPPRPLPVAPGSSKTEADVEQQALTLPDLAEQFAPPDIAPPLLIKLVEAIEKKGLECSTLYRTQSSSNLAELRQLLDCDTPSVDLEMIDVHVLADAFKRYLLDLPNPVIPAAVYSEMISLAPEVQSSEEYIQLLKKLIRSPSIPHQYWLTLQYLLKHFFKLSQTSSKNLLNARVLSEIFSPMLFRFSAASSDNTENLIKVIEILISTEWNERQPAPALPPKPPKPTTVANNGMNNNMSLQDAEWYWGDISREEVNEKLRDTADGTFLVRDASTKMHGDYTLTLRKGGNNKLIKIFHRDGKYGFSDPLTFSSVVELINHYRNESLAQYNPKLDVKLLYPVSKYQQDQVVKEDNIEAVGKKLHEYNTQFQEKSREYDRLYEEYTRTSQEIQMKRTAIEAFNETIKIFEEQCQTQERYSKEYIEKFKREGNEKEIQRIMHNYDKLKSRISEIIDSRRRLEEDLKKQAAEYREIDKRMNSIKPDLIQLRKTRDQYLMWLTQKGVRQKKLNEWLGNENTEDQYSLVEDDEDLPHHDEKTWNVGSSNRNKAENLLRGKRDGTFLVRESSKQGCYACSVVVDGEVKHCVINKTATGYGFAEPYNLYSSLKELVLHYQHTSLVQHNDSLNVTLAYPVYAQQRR

`Nc1nc(C(F)(F)F)cn2c(-c3ccc(Cl)c(S(=O)(=O)NC45CCC(CO)(C4)C5)c3)cnc12` [Example 399, 5-(8-Amino-6-(trifluoromethyl)imidazo[1,2-a]pyrazin-3-yl)-2-chloro-N-(4-(hydroxymethyl)bicyclo[2.1.1]hexan-1-yl)benzenesulfonamide trifluoroacetate salt]: the IC50 (in general, the concentration that gives 50% inhibition) in assay [1] was below 100 nM; in assay [2] (Homo sapiens) it was above 1000 nM; in assay [3], below 100 nM.
In the case of `Cc1ccc(S(=O)(=O)NC23CCC(CO)(CC2)CC3)cc1-c1cnc2c(N)ncnn12` [Example 186, 3-(4-aminoimidazo[2,1-f][1,2,4]triazin-7-yl)-N-(4-(hydroxymethyl)bicyclo[2.2.2]octan-1-yl)-4-methylbenzenesulfonamide], the figures for the IC50 in assay [1], in assay [2] (Homo sapiens) and in assay [3] were 100 to 500 nM, 100 to 500 nM and below 100 nM, respectively.
Take `Cc1nc(N)c2ncc(-c3cc(S(=O)(=O)NCC(O)C(F)(F)F)ccc3C)n2n1` (single isomer, unassigned) [Example 267, 3-(4-Amino-2-methylimidazo[1,2-f][1,2,4]triazin-7-yl)-4-methyl-N-(3,3,3-trifluoro-2-hydroxypropyl)benzenesulfonamide (single enantiomer isolated)]: the half-maximal inhibitory concentration (IC50) is 100 to 500 nM in assay [1], 100 to 500 nM in assay [2] and below 100 nM in assay [3].
`Cc1ccc(S(=O)(=O)NCC2(CO)CCOCC2)cc1-c1cnc2c(N)ncnn12` [Example 121, 3-(4-aminoimidazo[2,1-f][1,2,4]triazin-7-yl)-N-{[4-(hydroxymethyl)tetrahydro-2H-pyran-4-yl]methyl}-4-methylbenzenesulfonamide]: the IC50 in assay [1] was above 2000 nM; in assay [2] (Homo sapiens), above 1000 nM; in assay [3], 100 to 500 nM.
In the case of `Cc1ccc(S(=O)(=O)NC23CC(CC#N)(C2)C3)cc1-c1cnc2c(N)ncnn12` [Example 91, trifluoroacetate salt], the IC50 in assay [1] is 100 to 500 nM; in assay [2], 100 to 500 nM; in assay [3], below 100 nM.
As to `Cc1ccc(S(=O)(=O)NC2(C#N)CC2)cc1-c1cnc2c(N)ncnn12` [Example 189, 3-(4-aminoimidazo[2,1-f][1,2,4]triazin-7-yl)-N-(1-cyanocyclopropyl)-4-methylbenzenesulfonamide], the IC50 in assay [1] is 500 to 2000 nM; in assay [2] (Homo sapiens), 500 to 1000 nM; in assay [3] it was below 100 nM.
For `Cc1ccc(S(=O)(=O)NC23CCC(CC#N)(CC2)C3)cc1-c1cnc2c(N)ncnn12` [Example 430, 3-(4-Aminoimidazo[1,2-f][1,2,4]triazin-7-yl)-N-((1s,4s)-4-(cyanomethyl)bicyclo[2.2.1]heptan-1-yl)-4-methylbenzenesulfonamide trifluoroacetate salt] the same measures were 100 to 500 nM, 100 to 500 nM and below 100 nM.
For `[2H]C([2H])([2H])c1ccc(S(=O)(=O)N(C)C23CCC(C#N)(C2)C3)cc1-c1cnc2c(N)ncnn12` [Example 261, 3-(4-Aminoimidazo[2,1-f][1,2,4]triazin-7-yl)-N-(4-cyanobicyclo[2.1.1]hexan-1-yl)-N-methyl-4-(methyl-d3)benzenesulfonamide] the same measures were 500 to 2000 nM, below 100 nM and below 100 nM.
Turning to `Cc1ccc(S(=O)(=O)NC23CC(F)(C2)C3)cc1-c1cnc2c(N)nc(C(F)(F)F)nn12` [Example 333, 3-(4-Amino-2-(trifluoromethyl)imidazo[1,2-f][1,2,4]triazin-7-yl)-N-(3-fluorobicyclo[1.1.1]pentan-1-yl)-4-methylbenzenesulfonamide trifluoroacetate salt], the IC50 in assay [1] was 100 to 500 nM; in assay [2], below 100 nM; in assay [3], below 100 nM.
As for `Cc1ccc(S(=O)(=O)NC23CC(Cn4cccn4)(C2)C3)cc1-c1cnc2c(N)nc(C(F)(F)F)cn12` [Example 283, N-(3-((1H-pyrazol-1-yl)methyl)bicyclo[1.1.1]pentan-1-yl)-3-(8-amino-6-(trifluoromethyl)imidazo[1,2-a]pyrazin-3-yl)-4-methylbenzenesulfonamide trifluoroacetate salt], the IC50 was 100 to 500 nM in assay [1], 100 to 500 nM in assay [2] (Homo sapiens) and below 100 nM in assay [3].
For the molecule `Cc1ccc(S(=O)(=O)N[C@H]2CC[C@H](O)CC2)cc1-c1cnc2c(N)nc(-c3ccc(CO)cc3F)cn12` [Example 32, 3-{8-Amino-6-[2-fluoro-4-(hydroxymethyl)phenyl]imidazo[1,2-a]pyrazin-3-yl}-N-(trans-4-hydroxycyclohexyl)-4-methylbenzenesulfonamide], the IC50 in assay [1], in assay [2] (Homo sapiens) and in assay [3] was below 100 nM each time.
As to `Cc1ccc(S(=O)(=O)N[C@H]2CC[C@H](O)CC2)cc1-c1cnc2c(N)nccn12` [Example 13, 3-(8-Aminoimidazo[1,2-a]pyrazin-3-yl)-N-(trans-4-hydroxycyclohexyl)-4-methylbenzenesulfonamide], the IC50 in assay [1] was 100 to 500 nM; in assay [2] (Homo sapiens), 100 to 500 nM; in assay [3], below 100 nM.
For the molecule `Cc1ccc(S(=O)(=O)N2CCCC(N)C2)cc1-c1cnc2c(N)nc(C(F)(F)F)cn12` (stereo not drawn) [Example 516, 3-(5-((3-Aminopiperidin-1-yl)sulfonyl)-2-methylphenyl)-6-(trifluoromethyl)imidazo[1,2-a]pyrazin-8-amine trifluoroacetate], the IC50 in assay [1], in assay [2] (Homo sapiens) and in assay [3] was below 100 nM throughout.
With `Cc1ccc(S(=O)(=O)NCCN2CCS(=O)(=O)CC2)cc1-c1cnc2c(N)ncnn12` [Example 129, 3-(4-aminoimidazo[2,1-f][1,2,4]triazin-7-yl)-N-(2-(1,1-dioxidothiomorpholino)ethyl)-4-methylbenzenesulfonamide], the values for the IC50 in assay [1], in assay [2] (Homo sapiens) and in assay [3] were 100 to 500 nM, below 100 nM and below 100 nM, respectively.
With `Cc1ccc(S(=O)(=O)NC23CCC(C#N)(CC2)C3)cc1-c1cnc2c(N)ncnn12` [Example 90, 3-(4-Aminoimidazo[1,2-f][1,2,4]triazin-7-yl)-N-(4-cyanobicyclo[2.2.1]heptan-1-yl)-4-methylbenzenesulfonamide trifluoroacetate salt], the IC50 is 100 to 500 nM in assay [1], below 100 nM in assay [2] and below 100 nM in assay [3].
Consider `Cc1nc(N)c2ncc(-c3cc(S(=O)(=O)NCC(O)C(F)(F)F)ccc3C)n2n1` (single isomer, unassigned) [Example 266, 3-(4-Amino-2-methylimidazo[1,2-f][1,2,4]triazin-7-yl)-4-methyl-N-(3,3,3-trifluoro-2-hydroxypropyl)benzenesulfonamide (single enantiomer isolated)], for which the IC50 was 100 to 500 nM in assay [1], 100 to 500 nM in assay [2] and below 100 nM in assay [3].
`Cc1ccc(S(=O)(=O)N2C[C@H](N)C[C@H](C(F)(F)F)C2)cc1-c1cnc2c(N)nc(C(F)(F)F)cn12` [Example 307, 3-(5-(((3R,5S)-3-amino-5-(trifluoromethyl)piperidin-1-yl)sulfonyl)-2-methylphenyl)-6-(trifluoromethyl)imidazo[1,2-a]pyrazin-8-amine]: the IC50 in assay [1] was below 100 nM; in assay [2] (Homo sapiens) it was 100 to 500 nM; in assay [3] it was below 100 nM.
Turning to `Cc1ccc(S(=O)(=O)NC23CCN(CC2)CC3)cc1-c1cnc2c(N)ncnn12` [Example 182, 3-(4-aminoimidazo[1,2-f][1,2,4]triazin-7-yl)-4-methyl-N-(quinuclidin-4-yl)benzenesulfonamide trifluoroacetate salt], the 50% inhibitory concentration (IC50) in assay [1] was 500 to 2000 nM; in assay [2], 500 to 1000 nM; in assay [3], below 100 nM.
Consider `Cc1ccc(S(=O)(=O)N[C@H]2CC[C@H](O)CC2)cc1-c1cnc2c(N)nc(-c3cnn(C)c3)cn12` [Example 29, 3-[8-Amino-6-(1-methyl-1H-pyrazol-4-yl)imidazo[1,2-a]pyrazin-3-yl]-N-(trans-4-hydroxycyclohexyl)-4-methylbenzenesulfonamide], for which the IC50 in assay [1] was 100 to 500 nM; in assay [2] (Homo sapiens), above 1000 nM; in assay [3], below 100 nM.
The matching figures for `O=C(O)C(F)(F)F.[2H]C([2H])([2H])c1ccc(S(=O)(=O)NC23CCC(C#N)(C2)C3)cc1-c1cnc2c(N)nc(C)nn12` [Example 386, 3-(4-Amino-2-methylimidazo[2,1-f][1,2,4]triazin-7-yl)-N-(4-cyanobicyclo[2.1.1]hexan-1-yl)-4-(methyl-d3)benzenesulfonamide trifluoroacetate salt]: 100 to 500 nM, below 100 nM and below 100 nM.
For `Cc1ccc(S(=O)(=O)N2CCC[C@@H](N(C)C)C2)cc1-c1cnc2c(N)nc(C(F)(F)F)cn12` [Example 309, (R)-3-(5-((3-(dimethylamino)piperidin-1-yl)sulfonyl)-2-methylphenyl)-6-(trifluoromethyl)imidazo[1,2-a]pyrazin-8-amine] the same measures were 500 to 2000 nM, 100 to 500 nM and below 100 nM.
As to “3-{8-Amino-6-[3-(methylsulfonyl)phenyl]imidazo[1,2-a]pyrazin-3-yl}-N-(trans-4-hydroxycyclohexyl)-4-methylbenzenesulfonamide [Example 33]”, the values for the IC50 in assay [1], in assay [2] and in assay [3] were 100 to 500 nM, 500 to 1000 nM and below 100 nM, respectively.
